This passage reports IC50 and EC50 results from patent publication US11932634B2 (Gilead Sciences, Inc., priority 2021, dated 2024).

As usually defined, the IC50 is the concentration that inhibits the measured activity by half. The low end stands for inhibition by little substance, the high end for a need for much substance. A word on the EC50: it is the concentration needed to bring the measured effect to its halfway point.

SMILES strings stand for the structures.

Assay [1] addresses T1, human DGKα (Homo sapiens, UniProt P23743).
T1 construct: purchased Carna Biosciences'; inferred from the same paragraph's 'obtained from Carna Biosciences')
Kind of assay: DGKα Biochemical Activity Assay (ADP-Glo). (In ADP-Glo the light output rises with the ADP produced.)
From the text: Alternatively, the enzymatic activity of human DGKα was monitored in a biochemical assay in the presence or absence of compounds and using micelles containing 18:1 Diacylglycerol (DAG), 16:0-18:1 PS (POPS) and Octylglucoside as substrate. DGKα activity led to conversion of DAG and ATP to Phosphatidic Acid (PA) and ADP. Levels of ADP were monitored by bioluminescence using the ADP-Glo Kinase Assay (Promega) and were indicative of DGKα activity.
Ten nanoliters of test compound dissolved in DMSO at various concentrations were dispensed into a 384-well low volume nonbinding service white plates (Corning #3824) using a Labcyte Echo instrument. Recombinant DGKα Biosciences) in assay buffer (5 μL in 50 mM MOPS [3-(N-morpholino) propanesulfonic acid], pH 7.2; 0.0025% Triton X-100; 1 mM dithiothreitol; 5 mM MgCl2, 200 μM ATP) was added to the compound-containing plate and was incubated for 15 minutes at 25° C. A substrate solution (5 μL in 1.7 mM 1,2-dioleoyl-sn-glycerol [18:1 DAG], 13.5 mM 1-palmitoyl-2-oleoyl-sn-glycero-3-phospho-L-serine [16:0-18:1 PS](POPS), 2 μM CaCl2), 100 mM Octylglucoside (OG), 1 mM DTT) (obtained from Carna Biosciences) diluted in DGK ALPHA assay buffer was then added to start the reaction. Final concentrations were 1 nM DGKα, 100 μM ATP, 1 μM calcium chloride, 0.85 mM 1,2-dioleoyl-sn-glycerol (18:1 DAG), 6.75 mM 1-palmitoyl-2-oleoyl-sn-glycero-3-phospho-L-serine (16:0-18:1 PS) (POPS), 1 μM CaCl2), 50 mM Octylglucoside (OG) and 5 mM MgCl2. The reaction mixture was incubated at 25° C. for 1 hour. ADP-Glo Reagent (10 μL, 10 mM Mg added) provided by the kit was added to each well and incubated at 25° C. for 40 minutes. Then, 20 μL of Kinase Detection Reagent was added and incubated at 25° C. for 40 minutes. Luciferase activity of each well was measured via luminescence on an Envision plate reader (PerkinElmer).
Least squares curve fittings were performed using a four-parameter variable slope nonlinear regression model. […] IC50 values from multiple experiments were averaged by geometric mean and the standard deviation was calculated.

The subject of assay [2] is Jurkat NFκB-luciferase cells. Kind of assay: Jurkat NFκB-Luciferase Assay.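 Also: bioluminescence read-out normalized to DMSO basal activation and to maximum enhancement at 1 µM compound, rising signal indicating stronger T-cell activation through DGKα inhibition.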 The class given is cell-based. As to conditions: Homo sapiens; Jurkat NFκB-luciferase cells activated with anti-CD3 antibody (OKT3), 2.5 hrs at 37° C., One-Glo Ex; geometric mean; read-out: DGK NFKb Luciferase EC50.
Method: The activity of compounds was tested in a cell based NFκB reporter assay. Jurkat cells that are stably expressing a luciferase reporter construct under the transcriptional control of a NFκB reporter element were activated with an anti-CD3 antibody and luciferase levels were measured with a bioluminescence readout.
The day after, the excess antibody was washed out five times with 100 ul/well of assay medium (RPMI supplemented with 10% fetal bovine serum) using a Biotek EL406 instrument and leaving 20 µl of residual volume in each well. Jurkat NFκB-luciferase cells (Promega #) were harvested and diluted to 1 million cells/ml in assay medium. Sixty nanoliters of test compound dissolved in DMSO at various concentrations were dispensed into 384-well v-bottom polypropylene plates (Greiner) using a Labcyte Echo instrument. Thirty microliters of medium containing the Jurkat NFκB-luciferase cells were then dispensed using a Biotek MicroFlo instrument in each well of the compound-containing plate. The medium/cell/compound mixture was mixed with a Bravo instrument and 20 ul/well of the mixture was transferred to the anti-CD3-coated plate. The assay mixture was then incubated for 2.5 hrs at 37° C. followed by equilibration at 25° C. for 30 min. Forty microliters of One-Glo Ex (Promega) was then added to the assay mixture and luciferase activity was read on a Envision plate reader 7 minutes later.
Bioluminescence data were normalized based on maximum enhancement (1 micromolar of compound) and on basal activation (DMSO) controls. Least squares curve fittings were performed using a four-parameter variable slope nonlinear regression model. […] EC50 values from multiple experiments were averaged by geometric mean and the standard deviation was calculated.
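For IC50 in this document: recombinant enzyme converting diacylglycerol in lipid micelles with ATP, ADP formed detected by luminescence, IC50 from a four-parameter nonlinear fit, geometric mean across experiments.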

T1 sequence (P23743 whole entry): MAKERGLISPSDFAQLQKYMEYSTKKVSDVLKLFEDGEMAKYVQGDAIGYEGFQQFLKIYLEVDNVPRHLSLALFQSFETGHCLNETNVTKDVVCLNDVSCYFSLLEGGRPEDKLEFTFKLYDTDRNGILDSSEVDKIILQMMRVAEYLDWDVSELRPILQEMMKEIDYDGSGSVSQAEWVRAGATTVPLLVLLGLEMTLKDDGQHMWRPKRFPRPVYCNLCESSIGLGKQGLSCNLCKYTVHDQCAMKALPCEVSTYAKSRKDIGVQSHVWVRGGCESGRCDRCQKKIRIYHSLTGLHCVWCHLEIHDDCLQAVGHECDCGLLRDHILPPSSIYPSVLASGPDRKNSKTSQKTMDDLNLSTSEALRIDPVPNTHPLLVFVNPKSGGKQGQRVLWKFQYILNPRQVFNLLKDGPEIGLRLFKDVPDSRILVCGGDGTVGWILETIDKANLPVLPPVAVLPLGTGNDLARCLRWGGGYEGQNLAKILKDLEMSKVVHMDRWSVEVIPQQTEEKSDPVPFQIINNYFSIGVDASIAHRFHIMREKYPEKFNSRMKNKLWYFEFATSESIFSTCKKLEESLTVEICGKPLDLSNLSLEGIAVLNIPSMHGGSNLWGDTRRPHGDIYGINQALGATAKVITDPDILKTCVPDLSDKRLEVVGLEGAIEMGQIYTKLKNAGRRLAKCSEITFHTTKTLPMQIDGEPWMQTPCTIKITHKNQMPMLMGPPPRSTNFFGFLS

With `[2H]C([2H])([2H])n1c(=O)nc(N2CCOCc3c(C#CC(C)(C)NC(=O)C4(C(F)F)CC4)cccc32)c2c(F)cccc21` [Example 178, 1-(difluoromethyl)-N-(4-(1-(5-fluoro-1-(methyl-d3)-2-oxo-1,2-dihydroquinazolin-4-yl)-1,2,3,5-tetrahydrobenzo[e][1,4]oxazepin-6-yl)-2-methylbut-3-yn-2-yl)cyclopropane-1-carboxamide], the IC50 in assay [1] was determined as 6.36 nM. Moreover, the EC50 in assay [2] was 9.33 nM.

With `[2H]C([2H])([2H])n1c(=O)nc(N2CCOCc3c(C#CC(C)(C)NC(=O)C(C)(C)C(F)F)cccc32)c2c(F)cccc21` [Example 179, 3,3-difluoro-N-(4-(1-(5-fluoro-1-(methyl-d3)-2-oxo-1,2-dihydroquinazolin-4-yl)-1,2,3,5-tetrahydrobenzo[e][1,4]oxazepin-6-yl)-2-methylbut-3-yn-2-yl)-2,2-dimethylpropanamide], in assay [1], the IC50 came out at 3.48 nM. In addition, the EC50 in assay [2] came out at 15.1 nM.

`[2H]C([2H])([2H])n1c(=O)nc(N2CCOCc3c(C#CC(C)(C)NC(=O)C4(C(C)(F)F)CC4)cccc32)c2c(F)cccc21` [Example 180, 1-(1,1-difluoroethyl)-N-(4-(1-(5-fluoro-1-(methyl-d3)-2-oxo-1,2-dihydroquinazolin-4-yl)-1,2,3,5-tetrahydrobenzo[e][1,4]oxazepin-6-yl)-2-methylbut-3-yn-2-yl)cyclopropane-1-carboxamide] registered an IC50 in assay [1] of 4.63 nM. Also, in assay [2], the EC50 came to 7.56 nM.
